Reference: paper PMC12926979, “Ectopic, hepatic GLP-1R agonism enhances the weight loss efficacy of GLP-1 analogues” (Molecular Metabolism, 2026)

Key:
[1] = tested on: C57Bl6 mice; experiment: Cardiovascular radiotelemetry (heart rate, mean arterial pressure); assay type: in vivo, mouse; conditions: Glp1r AAV treated mice; 0.5, 1 and 3 nmol/kg SC; Figure 2H
From the text: Male C57Bl6 mice (8–10 weeks old) were anesthetized with isoflurane and surgically implanted with pressure transmitters (PA-C10, DSI), with the catheter inserted into the left carotid artery and the body of the transmitter between the outer skin layer and abdomen wall in the left flank of the mouse. After recovering, they were singly housed and monitored in their home cages. Mice were given control and experimental AAV virus via tail vein injections at least 7 days prior to CV study. Transmitters were turned on via magnets and SC vehicle injections were administered 2 h after the onset of the light phase for baseline measurements. At t = 24 h, mice were grouped if needed and SC compound injections began. Stressors were allowed only from 9:00 AM to 11:00 AM during the light phase, with continuous sampling throughout the day. Measurements of pulse pressure, arterial pressures, and heart rate values were extracted with the DataQuest A.R.T. 4.1 software and averaged into 3-hour bins for analysis.

[2] = Pharmacokinetic study in WT DIO mice dosed with control or Glp1r expressing AAV; assay type: in vivo, mouse; conditions: Glp1r AAV treated vs control groups; Figure 2K
Method: Male C57Bl6 mice were randomized and evenly distributed to test groups (n = 8 per group) according to body weight. Animals received tail vein injection of the control AAV or mGLP-1R expressing AAV at a dose of 10^12 GC per mouse on day −7 for each study. […] Treatments were administered via daily SC injection for the duration of the study; dosage is indicated within each figure. Dose escalation regimens for each peptide were determined based on previously published studies. Body weight and food intake was measured every other day throughout the study.

[3] = target: T1, hGLP-1R (Homo sapiens, UniProt P43220); conditions: cited from earlier work
T1 construct: expressed in transfected cells
From the text: Second, agonism of the ectopic, hepatic GLP-1R creates a novel mechanism of drug clearance and may have effects on biodistribution.

T1 sequence (P43220 24-463): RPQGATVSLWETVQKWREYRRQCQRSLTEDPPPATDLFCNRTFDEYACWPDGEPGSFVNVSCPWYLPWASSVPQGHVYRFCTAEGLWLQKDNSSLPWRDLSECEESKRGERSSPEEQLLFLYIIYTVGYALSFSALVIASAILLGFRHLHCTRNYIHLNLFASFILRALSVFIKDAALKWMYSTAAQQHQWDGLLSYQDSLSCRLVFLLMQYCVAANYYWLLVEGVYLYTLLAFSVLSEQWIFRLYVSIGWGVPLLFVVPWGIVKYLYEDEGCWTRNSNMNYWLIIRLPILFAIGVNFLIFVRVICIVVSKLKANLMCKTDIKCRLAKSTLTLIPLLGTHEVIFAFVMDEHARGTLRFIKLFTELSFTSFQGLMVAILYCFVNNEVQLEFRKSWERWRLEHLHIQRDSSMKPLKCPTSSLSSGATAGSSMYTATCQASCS

Compound	Heart rate effect of semaglutide + Glp1r AAV [1]	semaglutide clearance with ectopic hepatic GLP-1R [2]	GLP-1R internalization profile [3]
CC[C@H](C)[C@H](NC(=O)[C@H](Cc1ccccc1)NC(=O)[C@H](CCC(=O)O)NC(=O)[C@H](CCCCNC(=O)COCCOCCNC(=O)COCCOCCNC(=O)CC[C@H](NC(=O)CCCCCCCCCCCCCCCCC(=O)O)C(=O)O)NC(=O)[C@H](C)NC(=O)[C@H](C)NC(=O)[C@H](CCC(N)=O)NC(=O)CNC(=O)[C@H](CCC(=O)O)NC(=O)[C@H](CC(C)C)NC(=O)[C@H](Cc1ccc(O)cc1)NC(=O)[C@H](CO)NC(=O)[C@H](CO)NC(=O)[C@@H](NC(=O)[C@H](CC(=O)O)NC(=O)[C@H](CO)NC(=O)[C@@H](NC(=O)[C@H](Cc1ccccc1)NC(=O)[C@@H](NC(=O)CNC(=O)[C@H](CCC(=O)O)NC(=O)C(C)(C)NC(=O)[C@@H](N)Cc1cnc[nH]1)[C@@H](C)O)[C@@H](C)O)C(C)C)C(=O)N[C@@H](C)C(=O)N[C@@H](Cc1c[nH]c2ccccc12)C(=O)N[C@@H](CC(C)C)C(=O)N[C@H](C(=O)N[C@@H](CCCNC(=N)N)C(=O)NCC(=O)N[C@@H](CCCNC(=N)N)C(=O)NCC(=O)O)C(C)C [semaglutide]	reduces this effect	significant increase in semaglutide clearance	–
tirzepatide	–	–	low receptor internalising profile
